≈ marks a conversion by molar mass, not a printed value. Where two headings read alike, the source gives them in different places. Marks after values point to notes of the source that are not given here.
Key:
[1] = tested on: Acinetobacter baumannii (A. baumannii, ATCC 19606); assay: MBC determination (in vitro antimicrobial experiment, CFU counting); type: cell-based; conditions: compound alone, A. baumannii (wild-type)
Method: (§1) Freeze-dried cultures of Escherichia coli (E. coli, ATCC 25922), Klebsiella pneumoniae (K. pneumoniae, ATCC 13883), Pseudomonas aeruginosa (P. aeruginosa, ATCC 47085), Acinetobacter baumannii (A. baumannii, ATCC 19606), colistin and multidrug-resistant (CMDR) A. baumannii (FADDI-AB156), and CMDR P. aeruginosa (FADDI-PA067) were grown aerobically and maintained by passage at ambient temperature on horse blood agar (10% v/v defibrinated horse blood, 4.4% w/v Oxoid Blood Agar Base No. 2). Overnight cultures were made from transferring a colony (ca. half a loop) from the agar plates to culture tubes containing sterilized Luria-Bertani broth (LB, 1% w/v Bacto™ Tryptone, 1% w/v NaCl, 0.5% w/v Oxoid Yeast Extract) (20 mL). Bacterial cultures were incubated overnight at 37° C. with aeration and without agitation, with the exception of the two P. aeruginosa strains (ATCC 47085 and FADDI-PA067) which were cultured at 37° C. with aeration and agitation (150 rpm). On the next day, for E. coli, K. pneumonia, P. aeruginosa (ATCC 47085), and CMDR P. aeruginosa (FADDI-PA067), small aliquots (i.e., 0.5-3 mL) were taken from the culture tubes, further diluted with LB (20 mL), and incubated for 3-4 h at 37° C. with aeration before use. All bacterial cultures were cultured without agitation, with the exception of P. aeruginosa ATCC 47085 and FADDI-PA067 which were cultured with shaking at 150 rpm. For A. baumannii, an aliquot of 0.5 mL was taken from the overnight culture tube, further diluted with LB (200 mL), and incubated overnight at 37° C. with aeration before use.
(§2) The 96-well plate was then incubated at 37° C. for 1.5 or 3 h. For each well, microbial solution was diluted with saline (0.9% NaCl solution) using an appropriate dilution factor and placed on a LB agar plate (LB broth containing 15 g/L Oxoid Blood Agar Base No. 2). For E. coli, K. pneumoniae, and A. Baumannii (ATCC 19606 and FADDI-AB156), the agar plates were incubated overnight at room temperature, and then at 37° C. with aeration for 2 h. For P. Aeruginosa (ATCC 47085 and FADDI-PA067), the agar plates were incubated at 37° C. with aeration. The number of colony-forming units (CFU) was counted and expressed as CFU/mL. Positive controls consisting of cells without any treatment were used. […] A minimum of two independent experiments (biological replicates) of the assay were conducted and three technical replicates were used in each experiment. Data is expressed as mean±standard deviation (SD) and analysed using student's t-test.

[2] = tested on: Escherichia coli (E. coli, ATCC 25922); assay: as above; type: cell-based
Method: as §1, §2

[3] = tested on: Klebsiella pneumoniae (K. pneumoniae, ATCC 13883); assay: as above; type: cell-based
Method: as §1, §2

[4] = tested on: Pseudomonas aeruginosa (P. aeruginosa, ATCC 47085); assay: as above; type: cell-based; conditions: compound alone, P. aeruginosa (wild-type)
Method: as §1, §2

[5] = tested on: CMDR P. aeruginosa (FADDI-PA067); assay: as above; type: cell-based, Pseudomonas aeruginosa; conditions: compound alone
Method: as §1, §2

[6] = tested on: CMDR A. baumannii (FADDI-AB156); assay: as above; type: cell-based, Acinetobacter baumannii; conditions: compound alone
Method: as §1, §2

[7] = tested on: Acinetobacter baumannii (A. baumannii, ATCC 19606); assay: S16-antibiotic co-administration, synergy by Bliss Independence and HSA models; type: cell-based; conditions: for Interaction with S16 as evaluated by the Bliss Independence and HSA models (in words) / Antimicrobial activity on co-administration with S16 compared to compounds alone (log change in CFU/mL): A. baumannii wild-type; for Interaction with S16 as evaluated by the Bliss Independence and HSA models (in words): 3 h time point; for Antimicrobial activity on co-administration with S16 compared to compounds alone (log change in CFU/mL): all compounds at MBC50, t=3 h; for MBC in combination / Synergistic? (Yes/No) Bliss* / Synergistic? (Yes/No) HAS*: A. baumannii, 3 h; for MBC in combination: S16 and antibiotic co-administered, each at MBC50; for Synergistic? (Yes/No) Bliss* / Synergistic? (Yes/No) HAS*: antibiotic in combination with S16; for Synergistic? (Yes/No) Bliss*: Bliss Independence model; for Synergistic? (Yes/No) HAS*: Highest Single Agent model
Method: as §2
(§3) The Bliss Independence and HSA models were used to calculate drug synergism. […] Biotechnol. 31, 160-165 (2013). With the Bliss Independence model, synergism was calculated using the formula, BICAB=A+B−AB (1), where A and B are the effects of the two drugs in isolation and BICAB is the combined effect of the two drugs as predicted by the Bliss Independence model. […] In the HSA model, if CAB is greater than the greater of A and B, CAB>max(A, B), synergy is observed. The quantitative effect of the compounds when administered alone (i.e., A and B) or in combination (i.e., CAB) was defined as the fractional reduction of the population, R=1−CFUt/CFU0, where CFUt is the CFU/mL measured after treatment, and CFU0 is the CFU/mL measured before treatment.

[8] = tested on: Escherichia coli (E. coli, ATCC 25922); assay: as above; type: cell-based; conditions: for MBC in combination: S16 and antibiotic co-administered, each at MBC50, 3 h; for Antimicrobial activity on co-administration with S16 compared to compounds alone (log change in CFU/mL): all compounds at MBC50, t=3 h; for Synergistic? (Yes/No) Bliss* / Synergistic? (Yes/No) HAS*: antibiotic in combination with S16, 3 h; for Synergistic? (Yes/No) Bliss*: Bliss Independence model; for Synergistic? (Yes/No) HAS*: Highest Single Agent model
Method: as §2, §3

[9] = tested on: Klebsiella pneumoniae (K. pneumoniae, ATCC 13883); assay: as above; type: cell-based; conditions: for MBC in combination: S16 and antibiotic co-administered, each at MBC50, 3 h; for Antimicrobial activity on co-administration with S16 compared to compounds alone (log change in CFU/mL): all compounds at MBC50, t=3 h; for Synergistic? (Yes/No) Bliss* / Synergistic? (Yes/No) HAS*: antibiotic in combination with S16, 3 h; for Synergistic? (Yes/No) Bliss*: Bliss Independence model; for Synergistic? (Yes/No) HAS*: Highest Single Agent model
Method: as §2, §3

[10] = tested on: Pseudomonas aeruginosa (P. aeruginosa, ATCC 47085); assay: as above; type: cell-based; conditions: for Antimicrobial activity on co-administration with S16 compared to compounds alone (log change in CFU/mL): all compounds at MBC50; for Fold reduction of MBC: MBCeff with S16 versus MBC alone; for MBC in combination: S16 and antibiotic co-administered, each at MBC50; for Synergistic? (Yes/No) Bliss* / Synergistic? (Yes/No) HAS*: antibiotic in combination with S16; for Synergistic? (Yes/No) Bliss*: Bliss Independence model; for Synergistic? (Yes/No) HAS*: Highest Single Agent model
Method: as §2, §3

[11] = tested on: CMDR A. baumannii (FADDI-AB156); assay: as above; type: cell-based, Acinetobacter baumannii
Method: as §2, §3

[12] = tested on: CMDR A. baumannii (FADDI-AB156); assay: Antibiogram of CMDR A. baumannii (MIC); type: cell-based, Acinetobacter baumannii; conditions: CMDR A. baumannii (FADDI-AB156); for MIC: read-out: MIC; for Susceptibility: interpreted by CLSI resistant breakpoints
[13] = tested on: CMDR P. aeruginosa (FADDI-PA067); assay: Antibiogram of CMDR P. aeruginosa; type: cell-based, Pseudomonas aeruginosa; conditions: interpreted by CLSI resistant breakpoints

| Compound | MBC [4] [µM] | MBC [5] [µM] | Interaction with S16 as evaluated by the Bliss Independence and HSA models (in words) [7] | Antimicrobial activity on co-administration with S16 compared to compounds alone (log change in CFU/mL) [7] | MBC in combination [7] [µM] | Synergistic? (Yes/No) Bliss* [7] | Synergistic? (Yes/No) HAS* [7] | MBC in combination [8] [µM] | Antimicrobial activity on co-administration with S16 compared to compounds alone (log change in CFU/mL) [8] | Synergistic? (Yes/No) Bliss* [8] | Synergistic? (Yes/No) HAS* [8] | MBC in combination [9] [µM] | Antimicrobial activity on co-administration with S16 compared to compounds alone (log change in CFU/mL) [9] | Synergistic? (Yes/No) Bliss* [9] | Synergistic? (Yes/No) HAS* [9] | Antimicrobial activity on co-administration with S16 compared to compounds alone (log change in CFU/mL) ([10]; P. aeruginosa wild-type, t=3 h) | MBC in combination ([10]; P. aeruginosa, 3 h) [µM] | Synergistic? (Yes/No) Bliss* ([10]; P. aeruginosa, 3 h) | Synergistic? (Yes/No) HAS* ([10]; P. aeruginosa, 3 h) | Susceptibility [12] | other results |
| --- | --- | --- | --- | --- | --- | --- | --- | --- | --- | --- | --- | --- | --- | --- | --- | --- | --- | --- | --- | --- | --- |
| CC1(C)S[C@@H]2[C@H](NC(=O)[C@H](N)c3ccccc3)C(=O)N2[C@H]1C(=O)O [Amp, ampicillin] | >5860.0 | <1.4 | additive | significantly enhanced antimicrobial activity | 1465.4 | No | No | 5.7 | significantly enhanced antimicrobial activity | No | No | 327.6 | significantly enhanced antimicrobial activity | Yes | Yes | significantly enhanced antimicrobial activity | 2930.7 | Yes | Yes | Resistant | MBC ([1]; Acinetobacter baumannii, ATCC19606): > 2930 µM; MBC ([2]; Escherichia coli, ATCC25922, compound alone): 9.4 µM (≈ 3.28 µg/mL); MBC ([3]; Klebsiella pneumoniae, ATCC13883, compound alone): 655 µM (≈ 229 µg/mL); MBC ([4]; Pseudomonas aeruginosa, ATCC47085): > 5860 µM; MBC ([5]; Pseudomonas aeruginosa): < 1.4 µM; MBC ([6]; Acinetobacter baumannii): > 2930 µM; Interaction with S16 as evaluated by the Bliss Independence and HSA models (in words) ([8]; 3 h time point): additive; Interaction with S16 as evaluated by the Bliss Independence and HSA models (in words) ([9]; 3 h time point): synergistic; Interaction with S16 as evaluated by the Bliss Independence and HSA models (in words) ([10]; P. aeruginosa wild-type, 3 h time point): synergistic; Fold reduction of MBC ([10]; P. aeruginosa): > 16 fold; Fold reduction of MBC ([10]; P. aeruginosa, listed as ampicillin): more than 16 fold; reduction (printed in parentheses beside fold reduction of MBC) ([10]; P. aeruginosa, antibiotic co-administered with S16): 99.9%; MBC in combination, MBCeff ([10]; P. aeruginosa, co-administered S16 (at MBC50) and antibiotic, antibiotic concentration giving at least 2-log reduction in CFU/mL, 3 h): 366.3^a μM; Interaction with S16 as evaluated by the Bliss Independence and HSA models (in words) ([11]; 3 h time point): synergistic; MBC in combination ([11]; S16 and antibiotic co-administered, each at MBC50, 3 h): 2930.7 µM; Antimicrobial activity on co-administration with S16 compared to compounds alone (log change in CFU/mL) ([11]; all compounds at MBC50, t=3 h): Enhanced antimicrobial activity; Synergistic? (Yes/No) Bliss* ([11]; antibiotic in combination with S16, 3 h, Bliss Independence model): Yes; Synergistic? (Yes/No) HAS* ([11]; antibiotic in combination with S16, 3 h, Highest Single Agent model): Yes; MIC ([12]; Acinetobacter baumannii): > 2930 µM |
| gentamicin | 2.4 | <1.1 | non-synergistic | did not result in any significant change in activity | 6.0 | Yes | No | 2.2 | enhanced efficacy | Yes | Yes | 1.1 | enhanced efficacy | Yes | Yes | did not result in any significant change in activity | 1.2 | No | No | Resistant | MBC [1]: 12.1 µM; MBC ([2]; compound alone): 3.7 µM; MBC ([3]; compound alone): 2.2 µM; MBC [6]: >1104.5 µM; Antimicrobial activity on co-administration with S16 compared to compounds alone (log change in CFU/mL) ([10]; P. aeruginosa, t=1.5 h): enhancement in efficacy; Susceptibility [13]: Resistant; MIC [12]: >1104.5 µM |
